# In patent US20060239926A1, “Specific high-relaxivity compounds” (GUERBET, priority 2003, published 2006):
# pIC50, pKd: −log10 of the molar value. *: point of attachment. Cbz = O=C(OCc1ccccc1)*; NHOH = ON*
# Legend:
# [1] = target: FBP; settings: cited from earlier work; for affinity for FBP relative to folic acid: order: pemetrexed>CB3717>IAHQ>2-NH2-ZD1694
# [2] = Molar relaxivity (r1, r2) measurement; type: physicochemical; settings: 60 MHz; in water; 2 Gd per mol of product; uncertainty +/−5%
# Source text: Since BIO-FOLATE.I has 2 Gd per mol of product, the molar relaxivity values are summarized in this table (uncertainty +/−5%).
# [3] = tested on: KB cells; assay: In vitro study of binding/internalization in KB cells; type: cell-based, Human; settings: 37° C., with or without excess free folic acid; ICP-MS assays
# [4] = tested on: KB tumours; assay: Biodistribution study on nude mice bearing KB tumours
# Source text: c. Biodistribution study on nude mice bearing KB tumours: this biodistribution study comprised competition between P860 and free-folic acid. A group of animals received normal food and a co-injection of folic acid with the product tested and another was given a folate-depleted diet through a single injection of the product tested.
# Conditions for Biodistribution Study on Nude Mice Part 1: • Induction of subcutaneous tumours in nude female mice and […] of human KB cells. • Separation of the animals into 2 groups receiving a diet with or without folate (10 days). • The group with folate receives an additional injection of folic acid (25 μmol/kg IV) 5 minutes before the injections of contrast product (CP). • IV injection of CP then removal of organ samples (muscle, tumour, liver, kidneys) and plasma samples. Part 2: Assays by ICP-AES • Gd assay (P860, BIO-FOLATE.I, Dotarem): liver, kidney. Part 3: Bioanalysis: Assay by ICP-MS • Gd assay (P860, BIO-FOLATE.I, Dotarem): tumour, muscle, plasma
# Supplementing with Folate • 5.5 mM folic acid diluted in PBS and then injected at a dose of 25 μmol/kg (4.54 ml/kg).
# Folic acid and CP: IV administration (caudal vein).
# The folic acid was injected 5 minutes before the injection of CP.
# Results: Tumour Distribution of the PC—Gd
# [5] = target: T1, Folate Binding Protein (FBP) (Bos taurus, UniProt P02702); assay: Study of affinity with Folate Binding Protein by means of BIAcore 3000
# T1 construct: purchased Sigma F-0504
# T1 sequence (P02702 20-234): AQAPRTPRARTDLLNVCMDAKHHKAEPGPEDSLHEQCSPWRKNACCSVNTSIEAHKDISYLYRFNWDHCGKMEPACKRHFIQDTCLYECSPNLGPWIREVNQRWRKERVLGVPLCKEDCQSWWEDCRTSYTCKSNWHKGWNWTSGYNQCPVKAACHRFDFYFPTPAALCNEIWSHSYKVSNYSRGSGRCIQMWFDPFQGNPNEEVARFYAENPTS
# Method: (§1) The molar BIO-FOLATE.I relaxivity in water is very good, in particular at 60 MHz: r1=53 mM^−1·s^−1. It is recalled that the relaxivity obtained with specific products of the prior art of the type such as dendrimer associated with folates is r1=9.32 mM^−1s^−1 per Gd (Investigative Radiology, January 2000, vol 35, p 56). • Study of MRI imaging between 30 minutes and 24 hours the contrast at the level of the tumour is very clear, in particular 1 to 2 hours after injection. In addition, Gd assays by ICP-MS; were carried out on the reference organs at the end of the assays using the imager. […] The tumour/muscle ratio is of the order of 4 to 10 times that observed with previously used contrast products. Experimental Conditions for the BIACORE 3000 Studies on P860 and BIO-FOLATE.I (Study of Affinity Between P860, BIO-FOLATE.I, and Folate Binding Protein by Means of BIAcore 3000).
# PGM buffer: 100 mM KH2PO4, pH 7, 10% glycerol and 4 mM β-mercaptoethanol
# The FBP was immobilized at 1 mg/ml in PGM buffer according to the protocols recommended by BIAcore for coupling amines. Next, the remaining active carboxylated groups are saturated with 1M ethanolamine, pH=8.
# The folate binding was followed at four different concentrations (125, 250, 500 and 1000 μM). The association and the dissociation were studied with a flow rate at 30 μl/min. […]
# [6] = tested on: tumours; assay: Study of MRI imaging between 30 minutes and 24 hours with Gd assays by ICP-MS; type: in vivo
# Method: as §1
# [7] = target: T2, human MMP-1 (Homo sapiens, UniProt P03956); settings: value of the peptide component, not of the Gd conjugate, read-out: IC50 OF THE PEPTIDE (LITERATURE); cited from earlier work
# T2 sequence (P03956 100-469): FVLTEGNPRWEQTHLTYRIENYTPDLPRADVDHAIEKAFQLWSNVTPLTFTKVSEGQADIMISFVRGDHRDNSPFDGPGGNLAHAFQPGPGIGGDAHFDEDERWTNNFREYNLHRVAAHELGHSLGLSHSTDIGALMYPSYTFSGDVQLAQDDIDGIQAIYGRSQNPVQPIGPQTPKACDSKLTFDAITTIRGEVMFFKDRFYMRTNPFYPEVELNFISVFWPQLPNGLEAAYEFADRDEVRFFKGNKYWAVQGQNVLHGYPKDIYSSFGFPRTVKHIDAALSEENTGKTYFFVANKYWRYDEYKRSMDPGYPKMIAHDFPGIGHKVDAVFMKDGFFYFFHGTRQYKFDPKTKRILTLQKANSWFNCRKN
# [8] = target: T2, human MMP-1; assay: In vitro MMP-inhibiting activity (fluorimetry), MMP-1; type: biochemical; settings: for CONCENTRATION OF PEPTIDE (with significant inhibitory effect): tested at 10^−5, 10^−7 and 10^−9 M with respect to peptides
# Method: The inventors assayed the in vitro activity of the P947 and P967 gadolinium-chelate contrast products functionalized with matrix metalloproteases inhibitors (MMPs), on human MMP-1 and MMP-3. As regards the affinity of the biovector component, on the receptor, the controls were two peptides:
# More precisely, the in vitro MMP-inhibiting activity was evaluated in the following way: • 1. Incubation of the test product in the presence of the MMP enzyme, at 37° C., for a defined period of time, and then measurement of the fluorescence of the medium (t=0). • 2. Induction of the enzyme reaction by addition of the substrate to (which becomes fluorescent when it is cleaved by the enzyme), and then incubation at 37° C. for 40 min. A second measurement of fluorescence is then taken (t=40). • 3. The activity of the MMP enzyme is determined by subtraction of the signal measured by fluorimetry: (t=40)-(t=0). • 4. The results are expressed as percentage inhibition of the activity of the control enzyme. • 5. The standard inhibitory product is TIMP-1.
# The products were tested in duplicate, at 10^−5, 10^−7 and 10^−9 M with respect to peptides. Those which contain no peptides were treated in a manner similar to the corresponding functionalized contrast products.
# [9] = target: αvβ5 (Homo sapiens, UniProt P06756+P18084); settings: cited from earlier work
# αvβ5, sequence (P06756 31-889 limits assumed): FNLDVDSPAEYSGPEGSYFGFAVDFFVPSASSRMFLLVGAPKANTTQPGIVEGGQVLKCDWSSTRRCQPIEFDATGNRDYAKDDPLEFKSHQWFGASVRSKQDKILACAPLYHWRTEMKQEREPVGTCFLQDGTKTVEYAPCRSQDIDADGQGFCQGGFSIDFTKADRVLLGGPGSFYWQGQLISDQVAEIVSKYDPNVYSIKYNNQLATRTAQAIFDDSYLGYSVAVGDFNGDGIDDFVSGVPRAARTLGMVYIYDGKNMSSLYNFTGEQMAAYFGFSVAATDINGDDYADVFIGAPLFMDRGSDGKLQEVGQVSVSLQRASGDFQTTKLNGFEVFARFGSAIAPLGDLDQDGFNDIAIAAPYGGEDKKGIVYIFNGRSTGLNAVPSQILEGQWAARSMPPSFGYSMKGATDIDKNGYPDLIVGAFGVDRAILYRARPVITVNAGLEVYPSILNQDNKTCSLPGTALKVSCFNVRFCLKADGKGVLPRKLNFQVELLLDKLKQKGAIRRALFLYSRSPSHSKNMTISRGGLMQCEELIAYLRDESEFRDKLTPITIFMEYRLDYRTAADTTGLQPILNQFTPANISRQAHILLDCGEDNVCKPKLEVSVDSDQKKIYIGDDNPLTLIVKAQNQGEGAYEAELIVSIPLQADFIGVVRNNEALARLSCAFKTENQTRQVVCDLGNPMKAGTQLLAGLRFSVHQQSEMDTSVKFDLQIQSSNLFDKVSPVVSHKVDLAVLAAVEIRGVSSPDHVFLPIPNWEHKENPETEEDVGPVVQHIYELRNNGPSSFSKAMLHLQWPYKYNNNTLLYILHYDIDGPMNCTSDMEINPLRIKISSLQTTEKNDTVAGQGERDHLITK
# αvβ5, sequence (P06756 891-1048 partner limits assumed): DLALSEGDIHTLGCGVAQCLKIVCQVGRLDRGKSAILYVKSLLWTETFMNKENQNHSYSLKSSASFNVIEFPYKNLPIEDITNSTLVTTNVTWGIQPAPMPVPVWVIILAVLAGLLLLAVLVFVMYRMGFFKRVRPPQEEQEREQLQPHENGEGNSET
# αvβ5, sequence (P18084 24-799): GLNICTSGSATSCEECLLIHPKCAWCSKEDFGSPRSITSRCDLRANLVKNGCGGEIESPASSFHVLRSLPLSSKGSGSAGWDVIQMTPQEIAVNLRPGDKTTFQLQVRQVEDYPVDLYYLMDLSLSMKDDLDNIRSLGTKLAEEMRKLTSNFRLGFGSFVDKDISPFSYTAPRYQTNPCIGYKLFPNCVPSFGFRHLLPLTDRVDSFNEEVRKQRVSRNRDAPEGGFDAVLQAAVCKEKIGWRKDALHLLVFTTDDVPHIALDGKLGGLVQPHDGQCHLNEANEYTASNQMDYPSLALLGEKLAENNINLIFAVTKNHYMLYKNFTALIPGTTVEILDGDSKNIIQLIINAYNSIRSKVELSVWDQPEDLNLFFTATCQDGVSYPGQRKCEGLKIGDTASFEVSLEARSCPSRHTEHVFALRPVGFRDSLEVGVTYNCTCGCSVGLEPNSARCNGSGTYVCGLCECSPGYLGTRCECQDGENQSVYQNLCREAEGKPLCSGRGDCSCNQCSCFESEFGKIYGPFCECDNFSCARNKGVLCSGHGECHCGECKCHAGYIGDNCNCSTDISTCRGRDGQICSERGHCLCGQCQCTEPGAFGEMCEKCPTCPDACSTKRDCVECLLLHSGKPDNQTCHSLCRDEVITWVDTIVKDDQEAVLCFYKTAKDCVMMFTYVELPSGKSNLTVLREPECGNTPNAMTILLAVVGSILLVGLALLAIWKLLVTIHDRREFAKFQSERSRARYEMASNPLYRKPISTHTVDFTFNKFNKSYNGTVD
# [10] = target: α5β1 (Homo sapiens, UniProt P05556+P08648); settings: cited from earlier work
# α5β1, sequence (P08648 42-894 limits assumed): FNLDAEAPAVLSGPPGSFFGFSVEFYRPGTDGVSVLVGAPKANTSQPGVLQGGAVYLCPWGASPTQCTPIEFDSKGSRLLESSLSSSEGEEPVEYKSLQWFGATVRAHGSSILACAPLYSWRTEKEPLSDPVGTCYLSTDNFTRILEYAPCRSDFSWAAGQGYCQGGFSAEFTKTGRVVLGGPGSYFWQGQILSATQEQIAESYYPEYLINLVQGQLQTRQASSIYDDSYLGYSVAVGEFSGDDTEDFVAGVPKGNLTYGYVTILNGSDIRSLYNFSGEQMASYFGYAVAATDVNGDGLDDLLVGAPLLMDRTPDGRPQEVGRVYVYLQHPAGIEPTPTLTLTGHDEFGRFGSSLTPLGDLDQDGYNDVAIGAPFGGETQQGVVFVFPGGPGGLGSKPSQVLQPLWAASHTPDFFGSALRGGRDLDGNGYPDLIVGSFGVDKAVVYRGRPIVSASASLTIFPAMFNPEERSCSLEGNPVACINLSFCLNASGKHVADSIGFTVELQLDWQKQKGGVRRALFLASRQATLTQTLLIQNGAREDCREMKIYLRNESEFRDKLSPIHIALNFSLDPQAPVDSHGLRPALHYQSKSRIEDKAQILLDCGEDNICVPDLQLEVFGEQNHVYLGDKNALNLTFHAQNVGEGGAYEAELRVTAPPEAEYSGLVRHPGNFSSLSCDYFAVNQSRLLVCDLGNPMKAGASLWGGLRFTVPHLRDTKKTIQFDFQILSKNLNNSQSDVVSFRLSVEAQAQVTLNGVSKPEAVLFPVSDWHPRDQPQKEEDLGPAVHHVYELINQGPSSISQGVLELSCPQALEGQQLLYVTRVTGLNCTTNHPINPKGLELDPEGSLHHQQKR
# α5β1, sequence (P08648 895-1049 partner limits assumed): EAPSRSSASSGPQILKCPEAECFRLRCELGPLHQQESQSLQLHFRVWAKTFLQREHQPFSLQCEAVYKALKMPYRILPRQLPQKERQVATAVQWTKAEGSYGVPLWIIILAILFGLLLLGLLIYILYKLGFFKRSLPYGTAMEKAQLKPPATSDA
# α5β1, sequence (P05556 21-798): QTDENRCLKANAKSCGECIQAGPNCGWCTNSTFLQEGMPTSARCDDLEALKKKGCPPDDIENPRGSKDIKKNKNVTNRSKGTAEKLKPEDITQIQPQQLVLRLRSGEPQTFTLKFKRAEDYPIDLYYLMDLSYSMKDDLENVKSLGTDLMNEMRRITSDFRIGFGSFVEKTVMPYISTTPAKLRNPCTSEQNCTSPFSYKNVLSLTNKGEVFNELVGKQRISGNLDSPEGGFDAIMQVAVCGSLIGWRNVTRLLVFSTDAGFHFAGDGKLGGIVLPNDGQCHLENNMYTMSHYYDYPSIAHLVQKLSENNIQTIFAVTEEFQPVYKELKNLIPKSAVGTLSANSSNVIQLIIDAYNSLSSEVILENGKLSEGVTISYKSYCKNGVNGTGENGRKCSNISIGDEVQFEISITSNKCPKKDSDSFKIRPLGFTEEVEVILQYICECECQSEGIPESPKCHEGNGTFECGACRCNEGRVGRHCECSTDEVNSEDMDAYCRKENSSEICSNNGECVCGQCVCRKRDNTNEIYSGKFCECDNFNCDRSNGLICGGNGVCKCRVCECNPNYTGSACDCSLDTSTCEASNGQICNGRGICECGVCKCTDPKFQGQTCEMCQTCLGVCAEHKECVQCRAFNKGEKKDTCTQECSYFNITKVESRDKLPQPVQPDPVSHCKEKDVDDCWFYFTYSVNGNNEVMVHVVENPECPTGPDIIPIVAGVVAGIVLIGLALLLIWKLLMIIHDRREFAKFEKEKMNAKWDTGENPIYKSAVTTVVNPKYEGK
compound,measurement,setting,value
NC1=NC2=C(S[C@H](CCc3ccc(C(=O)N[C@@H](CCC(=O)O)C(=O)O)s3)CN2)C(O)N1 (some centres unmarked),pKd,[1],11.49
Nc1nc2ncc(CNc3ccc(C(=O)N[C@@H](CCC(=O)NCCCOCCOCCOCCCNc4c(NCCOCCOCCNc5nc(Nc6ccc(CCC(C(=O)O)N7CCN(C(CCC(=O)NCC(=O)Nc8c(Br)c(C(=O)N(CC(O)C(O)C(O)C(O)CO)CC(O)C(O)C(O)C(O)CO)c(Br)c(C(=O)N(CC(O)C(O)C(O)C(O)CO)CC(O)C(O)C(O)C(O)CO)c8Br)C(=O)O)CCN(C(CCC(=O)NCC(=O)Nc8c(Br)c(C(=O)N(CC(O)C(O)C(O)C(O)CO)CC(O)C(O)C(O)C(O)CO)c(Br)c(C(=O)N(CC(O)C(O)C(O)C(O)CO)CC(O)C(O)C(O)C(O)CO)c8Br)C(=O)O)CCN(C(CCC(=O)NCC(=O)Nc8c(Br)c(C(=O)N(CC(O)C(O)C(O)C(O)CO)CC(O)C(O)C(O)C(O)CO)c(Br)c(C(=O)N(CC(O)C(O)C(O)C(O)CO)CC(O)C(O)C(O)C(O)CO)c8Br)C(=O)O)CC7)cc6)nc(Nc6ccc(CCC(C(=O)O)N7CCN(C(CCC(=O)NCC(=O)Nc8c(Br)c(C(=O)N(CC(O)C(O)C(O)C(O)CO)CC(O)C(O)C(O)C(O)CO)c(Br)c(C(=O)N(CC(O)C(O)C(O)C(O)CO)CC(O)C(O)C(O)C(O)CO)c8Br)C(=O)O)CCN(C(CCC(=O)NCC(=O)Nc8c(Br)c(C(=O)N(CC(O)C(O)C(O)C(O)CO)CC(O)C(O)C(O)C(O)CO)c(Br)c(C(=O)N(CC(O)C(O)C(O)C(O)CO)CC(O)C(O)C(O)C(O)CO)c8Br)C(=O)O)CCN(C(CCC(=O)NCC(=O)Nc8c(Br)c(C(=O)N(CC(O)C(O)C(O)C(O)CO)CC(O)C(O)C(O)C(O)CO)c(Br)c(C(=O)N(CC(O)C(O)C(O)C(O)CO)CC(O)C(O)C(O)C(O)CO)c8Br)C(=O)O)CC7)cc6)n5)c(=O)c4=O)C(=O)O)cc3)nc2c(=O)[nH]1 (some centres unmarked) [BIO-FOLATE.I],molar r1,[2],53 mM⁻¹ s⁻¹
same,amount of product specifically bound and internalized in KB cells,[3],Correct capture
same,accumulation in the tumours,[4]; 15 μmol/kg,excellent accumulation
same,decrease of product in the tumour by folic acid,"[4]; competition with free folate, times 4 and 24 h",2 times less
same,injected dose found in the tumour,"[4]; female, nude, mouse, in vivo, iv",5-8%
same,injected theoretical dose found in the tumours,"[4]; folate-free diet, at 4 h",14%
same,injected theoretical dose found in the tumours,"[4]; folate-free diet, at 72 h",7%
same,effect of prior injection of free folic acid on tumour Gd,[4]; free folic at 25 μmol/kg before the product,decrease the Gd concentrations assayed in the tumours
same,activity in vivo,"[4]; in vivo studies (biodistribution, MRI)",P860 is inactive in vivo unlike BIO-FOLATE.I and BIO-FOLATE.II
same,binding to FBP (folate binding protein) in vitro,[5],binds specifically to FBP
same,contrast at the level of the tumour (MRI),"[6]; between 30 minutes and 24 hours, in particular 1 to 2 hours after injection",very clear
same,"heightening of the tumours, duration",[6]; versus products of the prior art,longer lasting than with products of the prior art
C#CCN(Cc1ccc2nc(N)[nH]c(=O)c2c1)c1ccc(C(=O)N[C@@H](CCC(=O)O)C(=O)O)cc1 [CB3717],affinity for FBP relative to folic acid,[1],affinity greater than folic acid
CNC[C@H](O)[C@@H](O)[C@H](O)[C@H](O)CO.O=C([O-])CN1CCN(CC(=O)[O-])CCN(CC(=O)O)CCN(CC(=O)[O-])CC1.[Gd+3] [Dotarem],injected theoretical dose found in the tumours,"[4]; mouse, in vivo",1-2%
same,intratumour amounts corrected for g of tissue,"[4]; mouse, in vivo",negligable beyond 4 h
CN(Cc1ccc2nc(N)[nH]c(=O)c2c1)c1ccc(C(=O)NC(CCC(=O)O)C(=O)O)s1 (centres unmarked) [Example 2-NH2-ZD1694],affinity for FBP relative to folic acid,[1],affinity greater than folic acid
CC(C)C[C@@H](NC(=O)[C@@H]1CCCN1C(=O)CNC(=O)c1ccc(NC(=S)Nc2ccc(CCC(C(=O)O)N3CCN(CC(=O)O)CCN(CC(=O)O)CCN(CC(=O)O)CC3)cc2)cc1)C(=O)N[C@@H](C)C(=O)NO (some centres unmarked) [Example P947],pIC50,[7],6.00
same,SIGNIFICANT INHIBITORY EFFECT,[8]; concentration of peptide 10^−5M,86%
same,CONCENTRATION OF PEPTIDE (with significant inhibitory effect),[8],10^−5M
Nc1nc2ccc(NCc3ccc(C(=O)N[C@@H](CCC(=O)O)C(=O)O)cc3)cc2c(=O)[nH]1 [IAHQ],affinity for FBP relative to folic acid,[1],affinity greater than folic acid
Nc1nc(O)c2c(CCc3ccc(C(=O)N[C@@H](CCC(=O)O)C(=O)O)cc3)c[nH]c2n1 [pemetrexed],affinity for FBP relative to folic acid,[1],affinity greater than folic acid
Cbz-Pro-Leu-Gly-{NHOH} [PEPTIDE A],pIC50,[7],4.40
same,CONCENTRATION OF PEPTIDE (with significant inhibitory effect),[8],>10^−5M
cyclo(ARGD-Mamb) [XJ735],blocking of αvβ5,[9],does not block
same,blocking of α5β1,[10],does not block
